Measurements from patent US11261175B2 (priority 2017, dated 2022).

What was measured:
Assay type in all cases: cell-based
[1] = tested on: HCV replicon S52-Feo (genotype 3a); test: Anti-HCV activity using HCV replicon S52-Feo (genotype 3a) in Huh 7.5.1 cells, luciferase readout; details: Hepatitis C virus, 72 h; Huh 7.5.1 cells with S52-Feo replicon, 3 days, firefly luciferase; read-out: HCV wt. GT-3a
[2] = tested on: HCV genotype 1b replicon with NS5A L31V+Y93H (double mutant); test: Transiently transfected assay of genotype 1b resistance mutant RNA L31V+Y93H (double mutant); details: Hepatitis C virus, Huh-7.5.1, 72 h, read-out: HCV Mutation L31V + Y93H
In short: (§1)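 Huh7.5.1 cells were electroporated with in vitro-transcribed, ScaI-linearized replicon RNAs carrying the Daclatasvir-resistance substitutions, then seeded 4 h later into DMEM with serially diluted compound. After 3 days, intracellular luciferase activity was read and normalized to mock-treated cells.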

[3] = tested on: JFH5a-Rluc-ad34 virus (HCV GT-2a); test: Anti-HCV activity using HCVcc (JFH5a-Rluc-ad34 virus) in Huh 7.5.1 cells, Renilla luciferase readout; details: Hepatitis C virus, GT2A, Huh-7.5.1, 72 h, read-out: HCV wt. GT-2a
In short: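 Huh 7.5.1 cells were inoculated with JFH5a-Rluc-ad34, a JFH1-derived virus with adaptive E2/p7 mutations, for 4 h before serially diluted compound was added. Intracellular Renilla luciferase was read after three days and normalized to mock-treated controls.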

[4] = tested on: HCV genotype 1b replicon with NS5A Y93H mutation; test: Transiently transfected assay of genotype 1b resistance mutant RNA Y93H; details: Hepatitis C virus, Huh-7.5.1, 72 h, read-out: HCV Mutation Y93H
In short: as §1

[5] = tested on: HCV genotype 1b replicon with NS5A L31V mutation; test: Transiently transfected assay of genotype 1b resistance mutant RNA L31V; details: Hepatitis C virus, Huh-7.5.1, 72 h, read-out: HCV Mutation L31V
In short: as §1

[6] = tested on: HCV replicon NK5.1-Gluc (genotype 1b); test: Anti-HCV activity using HCV replicon NK5.1-Gluc (genotype 1b) in Huh 7.5.1 cells, luciferase readout; details: Hepatitis C virus, 72 h; Huh 7.5.1 cells with NK5.1-Gluc replicon, 3 days, Gaussia luciferase; read-out: HCV wt. GT-1b

| SMILES | EC50 [1] [pM] | EC50 [2] [pM] | EC50 [3] [pM] | EC50 [4] [pM] | EC50 [5] [pM] | EC50 [6] [pM] |
| --- | --- | --- | --- | --- | --- | --- |
| CCC1(CC)c2cc(NC(=O)[C@@H]3CCCN3C(=O)[C@H](NC(=O)OC)c3ccccc3)ccc2-c2ccc(-c3cnc([C@@H]4CCCN4C(=O)[C@@H](NC(=O)OC)C(C)C)[nH]3)cc21 [Example 8, methyl ((S)-1-((S)-2-(5-(9,9-diethyl-7-((S)-1-((R)-2-((methoxycarbonyl)amino)-2-phenylacetyl)pyrrolidine-2-carboxyamido)-9H-fluorene-2-yl)-1H-imidazole-2-yl)pyrrolidine-1-yl)-3-methyl-1-oxobutane-2-yl)carbamate] | 10 to 100 | 1000 to 100000 | 1 to 10 | 10 to 100 | 10 to 100 | 1 to 10 |
| CCCCC1(CCCC)c2cc(NC(=O)[C@@H]3CC(=O)CN3C(=O)[C@H](NC(=O)OC)c3ccccc3)ccc2-c2ccc(NC(=O)[C@@H]3CC(=O)CN3C(=O)[C@H](NC(=O)OC)c3ccccc3)cc21 [Example 6, dimethyl ((1R,1′R)-((5S,5′S)-(((9,9-dibutyl-9H-fluorene-2,7-diyl)bis(azanediyl))bis(carbonyl))bis(3-oxopyrrolidine-5,1-diyl))bis(2-oxo-1-phenylethane-2,1-diyl))dicarbamate] | 10 to 100 | 1000 to 100000 | 100 to 1000 | 100 to 1000 | 1 to 10 | 10 to 100 |
| CCCCC1(CCCC)c2cc(NC(=O)[C@@H]3C[C@@H](O)CN3C(=O)[C@H](NC(=O)OC)c3ccccc3)ccc2-c2ccc(-c3cnc([C@@H]4CCCN4C(=O)[C@@H](NC(=O)OC)C(C)C)[nH]3)cc21 [Example 31, methyl((S)-1-((S)-2-(5-(9,9-dibutyl-7-((2S,4R)-4-hydroxy-1-((R)-2-((methoxycarbonyl)amino)-2-phenylacetyl)pyrrolidine-2-carboxyamido)-9H-fluorene-2-yl)-1H-imidazole-2-yl)pyrrolidine-1-yl)-3-methyl-1-oxobutane-2-yl)carbamate] | 100 to 1000 | 1000 to 100000 | 100 to 1000 | 10 to 100 | 100 to 1000 | 10 to 100 |
| CCCCCC1(CCCCC)c2cc(NC(=O)[C@@H]3CC4(CN3C(=O)[C@H](NC(=O)OC)c3ccccc3)OCCO4)ccc2-c2ccc(NC(=O)[C@@H]3CC4(CN3C(=O)[C@H](NC(=O)OC)c3ccccc3)OCCO4)cc21 [Example 13, dimethyl ((1R,1′R)-((8S,8′S)-(((9,9-dipentyl-9H-fluorene-2,7-diyl)bis(azanediyl))bis(carbonyl))bis(1,4-dioxa-7-azaspiro[4.4]nonane-8,7-diyl))bis(2-oxo-1-phenylethane-2,1-diyl))dicarbamate] | 100 to 1000 | 10 to 100 | 1000 to 100000 | 1 to 10 | 1 to 10 | 1 to 10 |
| CCCCC1(CCCC)c2cc(NC(=O)[C@@H]3CCCN3C(=O)[C@H](NC(=O)OC)c3ccccc3)ccc2-c2ccc(NC(=O)[C@@H]3C[C@H](COC)CN3C(=O)[C@H](NC(=O)OC)c3ccccc3)cc21 [Example 37, methyl ((R)-2-((2S,4S)-2-((9,9-dibutyl-7-((S)-1-((R)-2-((methoxycarbonyl)amino)-2-phenylacetyl)pyrrolidine-2-carboxyamido)-9H-fluorene-2-yl)carbamoyl)-4-(methoxymethyl)pyrrolidine-1-yl)-2-oxo-1-phenylethyl)carbamate] | 1 to 10 | 1000 to 100000 | 100 to 1000 | 10 to 100 | 1 to 10 | 1 to 10 |
| COC(=O)N[C@H](C(=O)N1CCC[C@@H]1C(=O)Nc1ccc2c(c1)C(CCCCC(F)(F)F)(CCCCC(F)(F)F)c1cc(NC(=O)[C@@H]3CCCN3C(=O)[C@H](NC(=O)OC)c3ccccc3)ccc1-2)c1ccccc1 [Example 5, methyl ((R)-2-((S)-2-((7-((R)-1-((S)-2-((methoxycarbonyl)amino)-2-phenylacetyl)pyrrolidine-2-carboxyamido)-9,9-bis(5,5,5-trifluoropentyl)-9H-fluorene-2-yl)carbamoyl)pyrrolidine-1-yl)-2-oxo-1-phenylethyl)carbamate] | 10 to 100 | > 100000 | 1000 to 100000 | > 100000 | 100 to 1000 | 1 to 10 |
| CCCCC1(CCCC)c2cc(NC(=O)[C@@H]3C[C@@H](OC)CN3C(=O)[C@H](NC(=O)OC)c3ccccc3)ccc2-c2ccc(NC(=O)[C@@H]3C[C@@H](OC)CN3C(=O)[C@H](NC(=O)OC)c3ccccc3)cc21 [Example 39, dimethyl (1R,1′R)-2,2′-((3R,3′R,5S,5′S)-5,5′-(9,9-dibutyl-9H-fluorene-2,7-diyl)bis(azanediyl)bis(oxomethylene)bis(3-methoxypyrrolidine-5,1-diyl))bis(2-oxo-1-phenylethane-2,1-diyl)dicarbamate] | 100 to 1000 | 1000 to 100000 | 1000 to 100000 | 10 to 100 | 1 to 10 | 10 to 100 |
| CCCCCC1(CCCCC)c2cc(NC(=O)[C@@H]3CC(=O)CN3C(=O)[C@H](NC(=O)OC)c3ccccc3)ccc2-c2ccc(NC(=O)[C@@H]3CC4(CN3C(=O)[C@H](NC(=O)OC)c3ccccc3)OCCO4)cc21 [Example 18, methyl ((R)-2-((S)-8-((7-((S)-1-((R)-2-((methoxycarbonyl)amino)-2-phenylacetyl)-4-oxopyrrolidine-2-carboxyamido)-9,9-dipentyl-9H-fluorene-2-yl)carbamoyl)-1,4-dioxa-7-azaspiro[4.4]nonane-7-yl)-2-oxo-1-phenylethyl)carbamate] | 100 to 1000 | 1000 to 100000 | 1000 to 100000 | 100 to 1000 | 10 to 100 | 10 to 100 |
